Assay results as given in patent US7501418B2, “Fused heterocyclic isoxazoline derivatives and their use as anti-depressants” (Janssen Pharmaceutica, N.V., priority 2002, dated 2009).
Where “and” joins values, the source holds several entries; their conditions need not be identical. Identical values can stand only once. Counter-ions that a name gives are not always drawn. Like-named read-outs stand apart in the source and are kept apart here.

Legend:
hα2C receptor = target: T1, hα2C receptor (Homo sapiens, UniProt P18825); assay: Radioligand binding experiment for α2C-adrenergic receptor ([3H]-raulwolscine)
T1 construct: expressed in transfected cells
T1 sequence (P18825 1-462): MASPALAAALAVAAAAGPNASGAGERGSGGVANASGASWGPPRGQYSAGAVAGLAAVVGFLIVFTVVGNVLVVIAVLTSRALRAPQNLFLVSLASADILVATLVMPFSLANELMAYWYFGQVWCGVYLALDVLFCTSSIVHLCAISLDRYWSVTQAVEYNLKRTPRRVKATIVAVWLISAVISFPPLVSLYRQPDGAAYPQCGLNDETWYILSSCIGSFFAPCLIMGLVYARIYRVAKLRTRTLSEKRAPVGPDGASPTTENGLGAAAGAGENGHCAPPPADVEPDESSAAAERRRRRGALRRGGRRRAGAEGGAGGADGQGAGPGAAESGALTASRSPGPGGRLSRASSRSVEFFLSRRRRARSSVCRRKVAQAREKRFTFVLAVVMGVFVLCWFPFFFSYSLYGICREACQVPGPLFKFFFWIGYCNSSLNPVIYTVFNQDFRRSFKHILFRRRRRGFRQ
Procedure: (§1) In general, a low concentration of a radioligand with a high binding affinity for a particular receptor or transporter is incubated with a sample of a tissue preparation enriched in a particular receptor or transporter or with a preparation of cells expressing cloned human receptors in a buffered medium. During the incubation, the radioligand binds to the receptor or transporter. When equilibrium of binding is reached, the receptor bound radioactivity is separated from the non-bound radioactivity, and the receptor- or transporter-bound activity is counted. The interaction of the test compounds with the receptor is assessed in competition binding experiments. Various concentrations of the test compound are added to the incubation mixture containing the receptor- or transporter preparation and the radioligand. The test compound in proportion to its binding affinity and its concentration inhibits binding of the radioligand. The radioligand used for hα2A, hα2B and hα2C receptor binding was [^3H]-raulwolscine and for the h5-HT transporter was [^3H]paroxetine. CHO cells, stabile transfected with human adrenergic-α2A-, -α2B or α2C receptor cDNA, were cultured in Dulbecco's Modified Eagle's Medium (DMEM)/Nutrient mixture Ham's F12 (ratio 1:1)(Gibco, Gent-Belgium) supplemented with 10% heat inactivated fetal calf serum (Life Technologies, Merelbeke-Belgium) and antibiotics (100 IU/ml penicillin G, 100 μg/ml streptomycin sulphate, 110 μg/ml pyruvic acid and 100 μg/ml L-glutamine). One day before collection, cells were induced with 5 mM sodiumbutyrate. Upon 80-90% of confluence, cells were scraped in phosphate buffered saline without Ca^2+ and Mg^2+ and collected by centrifugation at 1500×g for 10 min. The cells were homogenised in Tris-HCl 50 mM using an Ultraturrax homogenizer and centrifuged for 10 min at 23,500×g. The pellet was washed once by resuspension and rehomogenization and the final pellet was resuspended in Tris-HCl, divided in 1 ml aliquots and stored at −70° C. Membranes were thawed and re-homogenized in incubation buffer (glycylglycine 25 mM, pH 8.0). In a total volume of 500 μl, 2-10 μg protein was incubated with [^3H]raulwolscine (NET-722) (New England Nuclear, USA) (1 nM final concentration) with or without competitor for 60 min at 25° C. followed by rapid filtration over GF/B filter using a Filtermate196 harvester (Packard, Meriden, Conn.). Filters were rinsed extensively with ice-cold rinsing buffer (Tris-HCl 50 mM pH 7.4). Filter-bound radioactivity was determined by scintillation counting in a Topcount (Packard, Meriden, Conn.) and results were expressed as counts per minute (cpm). Non-specific binding was determined in the presence of 1 μM oxymetazoline for hα2A- and hα2B receptors and 1 μM spiroxatrine for hα2C receptors. Data from assays in the presence of compound were calculated as a percentage of total binding measured in the absence of test compound. Inhibition curves, plotting percent of total binding versus the log value of the concentration of the test compound, were automatically generated, and sigmoidal inhibition curves were fitted using non-linear regression. The pIC50 values of test compounds were derived from individual curves.

h5-HT transporter = target: T2, h5-HT transporter (Homo sapiens, UniProt P31645); assay: Radioligand binding experiment for 5-HT transporter ([3H]paroxetine); settings: human platelet membranes, [3H]paroxetine 0.5 nM
T2 construct: Human platelet membranes (Oceanix Biosciences Corporation, Hanover, Md., USA) were thawed; tissue Oceanix Biosciences Corporation, Hanover, Md., USA; host or cells: human platelet membranes
Procedure: In general, a low concentration of a radioligand with a high binding affinity for a particular receptor or transporter is incubated with a sample of a tissue preparation enriched in a particular receptor or transporter or with a preparation of cells expressing cloned human receptors in a buffered medium. During the incubation, the radioligand binds to the receptor or transporter. When equilibrium of binding is reached, the receptor bound radioactivity is separated from the non-bound radioactivity, and the receptor- or transporter-bound activity is counted. The interaction of the test compounds with the receptor is assessed in competition binding experiments. Various concentrations of the test compound are added to the incubation mixture containing the receptor- or transporter preparation and the radioligand. The test compound in proportion to its binding affinity and its concentration inhibits binding of the radioligand. The radioligand used for hα2A, hα2B and hα2C receptor binding was [^3H]-raulwolscine and for the h5-HT transporter was [^3H]paroxetine. Human platelet membranes (Oceanix Biosciences Corporation, Hanover, Md., USA) were thawed, diluted in buffer (Tris-HCl 50 mM, 120 mM NaCl and 5 mM KCl) and quickly (max 3 s) homogenised with an Ultraturrax homogenizer. In a total volume of 250 μL, 50-100 μg protein was incubated with [^3H]paroxetine (NET-869) (New England Nuclear, USA) (0.5 nM final concentration) with or without competitor for 60 min at 25 ° C. Incubation was stopped by rapid filtration of the incubation mixture over GF/B filters, pre-wetted with 0.1% polyethyleneamine, using a Filtermate196 harvester (Packard, Meriden, Conn.). Filters were rinsed extensively with ice-cold buffer and radioactivity on the filters was counted in a Topcount liquid scintillation counter (Packard, Meriden, Conn.). Data were expressed as cpm. Imipramine (at 1 μM final concentration) was used to determine the non-specific binding. Data from assays in the presence of compound were calculated as a percentage of total binding measured in the absence of test compound. Inhibition curves, plotting percent of total binding versus the log value of the concentration of the test compound, were automatically generated, and sigmoidal inhibition curves were fitted using non-linear regression. The pIC50 values of test compounds were derived from individual curves.

hα2A receptor = target: T3, hα2A receptor (Homo sapiens, UniProt P08913); assay: Radioligand binding experiment for α2A-adrenergic receptor ([3H]-raulwolscine); settings: CHO cell membranes with human α2A receptor, [3H]raulwolscine 1 nM
T3 construct: expressed in transfected cells
T3 sequence (P08913 1-465): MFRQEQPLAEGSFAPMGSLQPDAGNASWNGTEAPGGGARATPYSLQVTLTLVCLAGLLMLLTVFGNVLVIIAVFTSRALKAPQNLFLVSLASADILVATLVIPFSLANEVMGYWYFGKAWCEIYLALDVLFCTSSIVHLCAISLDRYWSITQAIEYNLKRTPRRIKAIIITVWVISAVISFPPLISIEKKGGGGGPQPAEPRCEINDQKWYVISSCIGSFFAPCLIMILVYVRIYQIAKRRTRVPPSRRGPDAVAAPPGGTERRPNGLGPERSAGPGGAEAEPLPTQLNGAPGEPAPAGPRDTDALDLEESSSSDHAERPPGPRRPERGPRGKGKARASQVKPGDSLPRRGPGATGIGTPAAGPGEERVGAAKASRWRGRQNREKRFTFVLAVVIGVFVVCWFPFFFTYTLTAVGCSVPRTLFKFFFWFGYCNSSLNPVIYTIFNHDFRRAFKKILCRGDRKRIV
Procedure: as §1

hα2B receptor = target: T4, hα2B receptor (Homo sapiens, UniProt P18089); assay: Radioligand binding experiment for α2B-adrenergic receptor ([3H]-raulwolscine); settings: CHO cell membranes with human α2B receptor, [3H]raulwolscine 1 nM
T4 construct: expressed in transfected cells
T4 sequence (P18089 1-450): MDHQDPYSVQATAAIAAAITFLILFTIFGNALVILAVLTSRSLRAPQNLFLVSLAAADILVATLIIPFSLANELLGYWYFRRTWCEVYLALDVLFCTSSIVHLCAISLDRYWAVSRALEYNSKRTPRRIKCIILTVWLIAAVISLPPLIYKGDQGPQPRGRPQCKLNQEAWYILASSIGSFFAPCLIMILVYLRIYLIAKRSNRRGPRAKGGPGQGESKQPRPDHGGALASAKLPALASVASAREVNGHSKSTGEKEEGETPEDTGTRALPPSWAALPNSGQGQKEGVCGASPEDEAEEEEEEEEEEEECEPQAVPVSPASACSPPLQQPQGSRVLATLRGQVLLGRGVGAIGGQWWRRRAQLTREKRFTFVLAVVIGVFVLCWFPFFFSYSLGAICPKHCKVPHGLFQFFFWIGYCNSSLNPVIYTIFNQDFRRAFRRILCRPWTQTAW
Procedure: as §1

[1] = CHO cell membranes with human α2C receptor, [3H]raulwolscine 1 nM
[2] = CHO cell membranes with human α2C receptor, [3H]raulwolscine 1 nM, read-out: hα2C (pIC50) (converted)
[3] = read-out: 5-HTT (pIC50) (converted)
[4] = read-out: hα2A (pIC50) (converted)

T2 sequence (P31645 whole entry): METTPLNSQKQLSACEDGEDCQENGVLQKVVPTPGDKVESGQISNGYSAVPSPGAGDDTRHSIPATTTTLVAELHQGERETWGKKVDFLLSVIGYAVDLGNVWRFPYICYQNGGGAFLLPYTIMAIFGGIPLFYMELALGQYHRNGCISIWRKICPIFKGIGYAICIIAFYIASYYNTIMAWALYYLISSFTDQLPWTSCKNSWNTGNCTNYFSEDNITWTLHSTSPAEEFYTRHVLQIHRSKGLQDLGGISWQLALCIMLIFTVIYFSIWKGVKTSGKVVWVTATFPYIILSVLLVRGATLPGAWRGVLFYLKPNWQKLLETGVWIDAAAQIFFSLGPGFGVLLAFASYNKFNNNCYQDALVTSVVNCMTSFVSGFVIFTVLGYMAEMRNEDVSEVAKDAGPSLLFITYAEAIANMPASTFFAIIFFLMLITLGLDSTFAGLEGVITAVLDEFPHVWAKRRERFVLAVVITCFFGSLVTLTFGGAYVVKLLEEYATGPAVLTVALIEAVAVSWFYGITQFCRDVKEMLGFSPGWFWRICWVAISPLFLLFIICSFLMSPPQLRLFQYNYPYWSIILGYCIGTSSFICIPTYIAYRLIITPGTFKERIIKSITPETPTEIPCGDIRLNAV

Structure (SMILES)	hα2C (pIC50) (hα2C receptor; [1])	5-HTT (pIC50) (h5-HT transporter)	hα2A (pIC50) (hα2A receptor)	further results
C/C(=C\c1ccccc1)CN1CCN(CC2ON=C3c4cc5ccn(C)c5cc4OCC32)CC1 (centres unmarked) [Compound 7, 7-methyl-3-[4-(2-methyl-3-phenyl-allyl)-piperazin-1-ylmethyl]-3a,4-dihydro-3H,7H-2,5-dioxa-1,7-diaza-dicyclopenta[a,g]naphthlene]				IC50 (hα2C receptor): 0.794 nM; IC50 (h5-HT transporter; 5-HTT (pIC50)): 5.01 nM; IC50 (hα2A receptor; hα2A (pIC50)): 3.16 nM
C/C(=C\c1ccc(F)cc1)CN1CCN(CC2ON=C3c4cc5cc[nH]c5cc4OCC32)CC1 (racemic) [Compound 3]	8.7	8.2	7.8	hα2B (pIC50) (hα2B receptor): 7.6
CC(=O)n1ccc2cc3c(cc21)OCC1C3=NOC1CN1CCN(C/C(C)=C/c2ccccc2)CC1 (centres unmarked) [Compound 11, 1-{3-[4-(2-methyl-3-phenyl-allyl)-piperazin-1-ylmethyl]-3a,4-dihydro-3H-2,5-dioxa-1,7-diaza-dicyclopenta[a,g]naphthalen7-yl}-ethanone]				IC50 (hα2C receptor): 1 nM; IC50 (h5-HT transporter; 5-HTT (pIC50)): 6.31 nM; IC50 (hα2A receptor; hα2A (pIC50)): 2.51 nM
C/C(=C\c1ccccc1)CN1CCN(CC2ON=C3c4ccncc4OCC32)CC1 (centres unmarked) [Compound 18, 3-[4-(2-methyl-3-phenyl-allyl)-piperazin-1-ylmethyl]-3a,4-dihydro-3H-2,5-dioxa-1,7-diaza-cyclopenta[a]naphthalene oxalate salt (1/1)]				IC50 (hα2B receptor; read-out: hα2B (pIC50) (converted)): 1.58 nM; IC50 (hα2C receptor; [2]): 1.58 nM; IC50 (h5-HT transporter; [3]): 200 nM and 31.6 nM; IC50 (hα2A receptor; [4]): 1.26 nM and 1.58 nM
Clc1ccc(CN2CCN(CC3ON=C4c5cc6cc[nH]c6cc5OCC43)CC2)cc1 (racemic) [Compound 5]	7.4	7.8	6.7	
COC(=O)n1ccc2cc3c(cc21)OCC1C3=NOC1CN1CCN(C/C(C)=C/c2ccccc2)CC1 (racemic) [Compound 13]	8.4	7.9	8.4	
C/C(=C\c1ccccc1)CN1CCN(CC2ON=C3c4cc5ccn(C(=O)C6CC6)c5cc4OCC32)CC1 (racemic) [Compound 12]	8.5	7.7	8.2	
CC(=CCN1CCN(CC2ON=C3c4cc5cc[nH]c5cc4OCC32)CC1)c1ccccc1 (racemic) [Compound 6]	8.6	8.3	8.1	
COCC(=O)n1ccc2cc3c(cc21)OCC1C3=NOC1CN1CCN(C/C(C)=C/c2ccccc2)CC1 (racemic) [Compound 14]	8.9	8.4	8.5	
C/C(=C\c1cccc(F)c1)CN1CCN(CC2ON=C3c4ccncc4OCC32)CC1 (racemic) [Compound 20]	8.8	7.6	9.2	
c1ccc2cc(CN3CCN(CC4ON=C5c6ccncc6OCC54)CC3)ccc2c1 (centres unmarked) [Compound 19, 3-(4-naphthalen-2-ylmethyl-piperazin-1-ylmethyl)-3a,4-dihydro-3H-2,5-dioxa-1,7-diaza-cyclopenta[a]naphthalene oxalate salt (1/1)]				IC50 (hα2C receptor; [2]): 39.8 nM; IC50 (h5-HT transporter; [3]): 100 nM; IC50 (hα2A receptor; [4]): 10 nM
C/C(=C\c1ccccc1)CN1CCN(CC2ON=C3c4cccnc4OCC32)CC1 (centres unmarked) [Compound 22, 3-[4-(2-methyl-3-phenyl-allyl)-piperazin-1-ylmethyl]-3a,4-dihydro-3H-2,5-dioxa-1,6-diaza-cyclopenta[a]naphthalene oxalate salt]				IC50 (hα2C receptor; [2]): 79.4 nM; IC50 (h5-HT transporter; [3]): 6310 nM; IC50 (hα2A receptor; [4]): 631 nM
C/C(=C\c1ccc(F)cc1)CN1CCN(CC2ON=C3c4ccncc4OCC32)CC1.O=C(O)C(=O)O (racemic) [Compound 21]	7.8	7.1	8.2	
